We go through one compound from patent publication US20160184276A1, “Sphingosine kinase inhibition for the treatment and prevention of obstetrical disorders” (priority 2014, published 2016).

The subject of data set [1] is LPS-stimulated timed pregnant mice. As to the kind of experiment: LPS-induced preterm birth in timed pregnant mice (in vivo assay). On the procedure:
(§1) In Vivo Assay. A total of 17 timed pregnant embryonic day (E) 15.5 mice, weighing between 28 and 35 g, were used for in vivo studies. The control group (n=7) was injected intraperitoneally (ip) with 50 mg/kg lipopolysaccharide (LPS) (serotype 026:B6; Sigma) dissolved in 0.5 ml PBS at T=0 and 50 μl PEG 400 at T=1 and 7 h. The treatment group (n=7) was also injected ip with the same dose of LPS and then injected with 50 mg/kg SphK inhibitor (SKI II) dissolved in PEG 400 at T=1 and 7 h. The sham group (n=3) was injected ip with 0.5 ml PBS at T=0 and 50 μl PEG 400 at T=1 and 7 h. After injections at T=7 h, mice were continuously observed for time of delivery and number of pups dropped. […] All mice were euthanized by carbon dioxide asphyxiation and necropsied to confirm pregnancy and the number of pups retained in utero was recorded. The retained placentas and uteri were harvested and stored at −80° C. or in 10% neutral buffered formalin at room temperature.
Statistical Analysis. For in vivo studies, the effect of SKI II on the percent of LPS stimulated mice delivering and on the percent of pups rescued from spontaneous abortion was evaluated with the Chi square and Fisher exact tests, respectively. Differences in rates of PTB and rates of pups delivered over time were evaluated with log-rank (Mantel-Cox) or Gehan-Breslow-Wilcoxon test. The U-test along with Analysis of Variance (ANOVA) and Tukey's multiple comparison test were used to evaluate differences in inflammatory infiltration in histologic sections. Differences in mean expression of cytokine proteins in immunoblots and in immunohistochemistry were determined using ANOVA with Tukey's multiple comparison test.

The test system of data set [2] is Tnfα, Il-1β, Il-6 and ECE-1 in placentas. The data set is described as follows: Western blot analysis of placental lysates from LPS-stimulated mice. It counts as in vivo. To be noted: SKI II treated group vs LPS control group. Here is the method:
as §1
Gel Electrophoresis. Frozen placentas were allowed to thaw on ice. Tissues were homogenized in 0.25 ml ice cold lysis buffer, using a Polytron homogenizer. The samples were homogenized on ice for 2 min at 15 min intervals. This procedure was continued for 2 h and the final homogenates were centrifuged at 10,000×g for 10 min. Volumes of supernatant containing […] of protein based on BCA assay, using bovine serum albumin as standard, were diluted in_NuPAGE® LDS sample buffer and the samples were heated at 95° C. for 5 minutes. Bis-Tris gels were used for protein separation. Gel electrophoresis was carried out in an XCell SureLock Mini-Cell apparatus. The gels were allowed to run for 45 minutes with MOPS running buffer at 125 mA and 200V. Proteins were then transferred to a polyvinylidene difluoride (PVDF) membrane, using an XCell II Blot Module. Transfer was carried out for 2 h on ice at a 170 mA current and a constant voltage of 30 V with NuPAGE transfer buffer
Western Blot Analysis. […] The membranes were analyzed for different proteins using their respective primary antibodies, i.e. TNFα, IL-1β, IL-6, IL-10 and ECE-1 diluted in the blocker solution overnight at 4° C. […] They were then treated with ECL Plus western blotting detection system and the chemiluminescence produced by the chemical reaction was detected by exposure to an autoradiography film. […] The protein content was quantified using Image J software (from NIH). […]
(§2) Statistical Analysis. For in vivo studies, the effect of SKI II on the percent of LPS stimulated mice delivering and on the percent of pups rescued from spontaneous abortion was evaluated with the Chi square and Fisher exact tests, respectively. […]

The subject of data set [3] is Tnfα, Il-1β, Il-6 in placental labyrinth. The data set is described as follows: Immunohistochemistry of cytokines in placental labyrinth. In kind it is in vivo, mice. The note with it: SKI II vs LPS. Here is the method:
as §1
Immunohistochemistry (IHC). Formalin fixed paraffin-embedded tissue sections were used for IHC. The sections were deparaffinized by washing in xylene for 3 min. They were then rehydrated by washing in 100% isopropyl alcohol (2 changes), 95% alcohol, 80% alcohol, 70% alcohol and distilled water for 3 min each. The sections were incubated for 5 min with peroxidase block (3% hydrogen peroxide in water) and washed in distilled water for 3 min. […] Image-Pro Premier DAB analysis software was used for quantification of the results. […]
Statistical Analysis. For in vivo studies, the effect of SKI II on the percent of LPS stimulated mice delivering and on the percent of pups rescued from spontaneous abortion was evaluated with the Chi square and Fisher exact tests, respectively. Differences in rates of PTB and rates of pups delivered over time were evaluated with log-rank (Mantel-Cox) or Gehan-Breslow-Wilcoxon test. […] Differences in mean expression of cytokine proteins in immunoblots and in immunohistochemistry were determined using ANOVA with Tukey's multiple comparison test.

Data set [4] concerns inflammatory cells (neutrophils) in placental labyrinth. As to the kind of experiment: Histology (H & E): inflammatory cell infiltration of placental labyrinth. To be noted: SKI II vs LPS-induced mice; P<0.05. It counts as in vivo. Here is the method:
as §1, with “The retained placentas and uteri were harvested and stored at −80° C. or in 10% neutral buffered formalin at room temperature.” left out
Histology. […] The number of polymorphonuclear neutrophils (PMNs) were counted in the three fields and the average value was recorded. Based on the average number of neutrophils per 400× field recorded, the slides were assigned grades as follows: 0:0-5 cells, 1:6-50 cells, 2:51-100 and 3:greater than 100. […]
as §2

Entries after “also recorded” stand apart in the source; their conditions may differ.

As for `Oc1ccc(Nc2nc(-c3ccc(Cl)cc3)cs2)cc1` [SKI II], the “Macroscopic congenital anomalies in pups” value in data set [1] (97 pups of LPS control and SKI II groups) is “no macroscopic congenital anomalies”. Further, the “Percent of mice delivered prematurely” value in data set [1] (LPS 50 mg/kg, SKI II 50 mg/kg at T=1 and 7 h, 1 out of 7 mice, 24 h) amounted to 14%. Besides, the “Percent of pups dropped prematurely” value in data set [1] (LPS 50 mg/kg, SKI II 50 mg/kg at T=1 and 7 h, 2 out of 50 pups, 24 h) is 4%. For the same compound, in data set [1] (SKI II treated vs LPS control dams, P<0.0001), the “Rate of pup survival (Kaplan-Meier survival curves, log rank test)” value is “statistically significant difference; also recorded: significantly improved”. Further, the “Litter size, fetal growth and development” value in data set [1] (observed throughout the study) is “No significant changes”. The “ECE-1 expression in placenta (Western blot)” value in data set [2] is given as “clearly suppressed; also recorded: significantly suppressed”. Moreover, in data set [2] (P<0.05), the “Il-1β expression in placental lysates (Western blot)” value was “reduced; also recorded: significantly suppressed”, the “Il-6 expression in placental lysates (Western blot)” value was “reduced; also recorded: significantly suppressed” and the “Tnfα expression in placental lysates (Western blot)” value was “reduced; also recorded: significantly suppressed”. Further, in data set [3] (P<0.0001), the “Placental labyrinthine level of Il-1β (immunohistochemistry)” value was “significantly reduced; also recorded: significantly suppressed” and the “Placental labyrinthine level of Tnfα (immunohistochemistry)” value was “significantly reduced; also recorded: significantly suppressed”. Moreover, in data set [3] (P<0.01), the “Placental labyrinthine level of Il-6 (immunohistochemistry)” value is reported as “significantly reduced; also recorded: significantly suppressed”. Also, the “Inflammatory cell infiltrate in placental labyrinth” value in data set [4] was “significantly reduced; also recorded: subsides significantly”.
